According to ChEMBL document CHEMBL1150045, “Callyspongenols A-C, new cytotoxic C22-polyacetylenic alcohols from a red sea sponge, Callyspongia species” (J Nat Prod, 2003):
Values after ≈ are worked out from the molar mass of the structure shown.

Tests used:
[1] = system: HeLa; experiment: Cytotoxicity against human HeLa cells; format: functional, cell-based
[2] = system: P388; experiment: Cytotoxicity against mouse P388 cells; format: functional, cell-based

| Structure (SMILES) | IC50 [1] [mg/L] | IC50 [2] [mg/L] |
| --- | --- | --- |
| C#C/C=C\CCCCCCC#CC#CCCC/C=C\C#CCO [CALLYSPONGENOL B] | 10 (≈ 32.6 µM) | 10 (≈ 32.6 µM) |
| C#C/C=C\CCCCC#CC#CC#CCCC/C=C\C#CCO [DEHYDROISOPHONOCHALYNOL] | 5.1 (≈ 16.9 µM) | 2.2 (≈ 7.27 µM) |
| C#C/C=C\CCCC/C=C\C#CC#CCCC/C=C\C#CCO [CALLYSPONGENOL C] | 3.9 (≈ 12.8 µM) | 2.2 (≈ 7.23 µM) |
| C#C/C=C\CCCCC#CCCCCC#CCCCC#CCO | 4.5 (≈ 14.6 µM) | 2.2 (≈ 7.13 µM) |
| COc1cccc2c1C(=O)c1c(O)c3c(c(O)c1C2=O)C[C@@](O)(C(=O)CO)C[C@@H]3O[C@H]1C[C@H](N)[C@H](O)[C@H](C)O1 [DOXORUBICIN] | 0.066 (≈ 0.121 µM) | 0.04 (≈ 0.0736 µM) |
